Experiment [1] relates to Enterococcus faecium. In words: Antibacterial activity against clinical isolate Enterococcus faecium assessed as reduction in bacterial growth incubated for 24 hrs by broth microdilution method. The class given is functional. On the technique in general: Broth dilution looks for growth in wells or tubes with falling amounts of substance.
In experiment [2] the test system is Staphylococcus aureus. Put plainly: Antibacterial activity against vancomycin-intermediate resistant Staphylococcus aureus ATCC 700699/Mu50 assessed as reduction in bacterial growth incubated for 24 hrs by broth microdilution method. The experiment is classed as functional.
For another experiment, the system named is Streptococcus pyogenes. Put plainly: Antibacterial activity against Streptococcus pyogenes ATCC 12204 assessed as reduction in bacterial growth incubated for 24 hrs by broth microdilution method. The experiment is classed as functional.
Another experiment deals with Klebsiella pneumoniae. Put plainly: Antibacterial activity against Klebsiella pneumoniae ATCC 13883 assessed as reduction in bacterial growth incubated for 24 hrs by broth microdilution method. The experiment is classed as functional.
The test system of experiment [3] is Enterococcus faecium. In words: Antibiofilm activity against Enterococcus faecium clinical isolate at sub-MIC doses measured after 24 hrs by crystal violet staining based analysis. The class given is functional.
For the next experiment, the system named is Acinetobacter baumannii. In words: Antibacterial activity against Acinetobacter baumannii ATCC 19606 assessed as reduction in bacterial growth incubated for 24 hrs by broth microdilution method. The experiment is classed as functional.
Experiment [4] relates to Staphylococcus aureus. In words: Antibiofilm activity against vancomycin-intermediate resistant Staphylococcus aureus ATCC 700699/Mu50 at 1/8 time MIC measured after 24 hrs by crystal violet staining based analysis. The class given is functional, organism-based.
Experiment [5] deals with Pseudomonas aeruginosa. In words: Antibiofilm activity against Pseudomonas aeruginosa ATCC 47085 at 8 to 16 ug/ml measured after 24 hrs by crystal violet staining based analysis. The class given is functional, organism-based. The conditions noted are these: dose 8-16 µg/ml.
Experiment [6] concerns Enterococcus faecium. In words: Antibiofilm activity against Enterococcus faecium clinical isolate at 1/8 times MIC measured after 24 hrs by crystal violet staining based analysis. The experiment is classed as functional, organism-based.
The test system of experiment [7] is Pseudomonas aeruginosa. Put plainly: Antibiofilm activity against Pseudomonas aeruginosa ATCC 47085 at sub-MIC doses measured after 24 hrs by crystal violet staining based analysis. The experiment is classed as functional.
For experiment [8], the system named is Staphylococcus aureus. Put plainly: Antibiofilm activity against vancomycin-intermediate resistant Staphylococcus aureus ATCC 700699/Mu50 at sub-MIC doses measured after 24 hrs by crystal violet staining based analysis. The class given is functional.
The test system of experiment [9] is Pseudomonas aeruginosa. In words: Antibacterial activity against Pseudomonas aeruginosa ATCC 47085 assessed as reduction in bacterial growth incubated for 24 hrs by broth microdilution method. The experiment is classed as functional.
Experiment [10] has as its system Enterococcus faecium. Put plainly: Antibacterial activity against Enterococcus faecium Efm-HS0649 assessed as reduction in bacterial growth incubated for 24 hrs by broth microdilution method. The class given is functional.
Experiment [11] deals with Enterococcus faecium. In words: Antibacterial activity against Enterococcus faecium Efm-HS06188 assessed as reduction in bacterial growth incubated for 24 hrs by broth microdilution method. The class given is functional.

Converted amounts (≈) assume the structure as drawn. The source made the active and inactive calls. The rule behind the calls is not given here. Some results are limits rather than exact numbers.

One may read the MIC as the lowest concentration that inhibits growth of the organism.

`Oc1c(Br)cc(Br)cc1-c1csc(-c2cc(Cl)c(Cl)[nH]2)n1`: the MIC in the experiment with Enterococcus faecium [1], in the experiment on Staphylococcus aureus [2] and in the experiment with Streptococcus pyogenes was > 256 µg/mL each time.

As for `COc1c(Cl)cc(Cl)cc1-c1csc(-c2[nH]c(Br)c(Br)c2Br)n1`, the minimal inhibitory concentration (MIC) in the experiment on Enterococcus faecium [1], in the experiment on Staphylococcus aureus [2] and with Streptococcus pyogenes was > 256 µg/mL throughout.

On to `Oc1c(Br)cc(Br)cc1-c1csc(-c2cc(C(F)(F)F)n[nH]2)n1`, for which the MIC in the experiment on Klebsiella pneumoniae was > 256 µg/mL; in the experiment with Enterococcus faecium [1], 4 µg/mL (≈ 8.53 µM); in the experiment with Acinetobacter baumannii it was > 256 µg/mL; with Staphylococcus aureus [2] it was 2 µg/mL (≈ 4.26 µM); in the experiment on Streptococcus pyogenes, 4 µg/mL (≈ 8.53 µM); with Pseudomonas aeruginosa [9], > 256 µg/mL. For the same compound, the Activity with Enterococcus faecium [3], in the experiment with Pseudomonas aeruginosa [7] and with Staphylococcus aureus [8] was >60% in each case. The result in the experiment with Staphylococcus aureus [4], in the experiment on Pseudomonas aeruginosa [5] and with Enterococcus faecium [6] was Active.

On to `Oc1c(Br)cc(C(F)(F)F)cc1-c1csc(-c2cc(Br)c(Br)[nH]2)n1`, for which the figures for the MIC with Enterococcus faecium [1], in the experiment with Staphylococcus aureus [2] and with Streptococcus pyogenes were 2 µg/mL (≈ 3.66 µM), 1 µg/mL (≈ 1.83 µM) and 0.5 µg/mL (≈ 0.914 µM), respectively.

As for `O=[N+]([O-])c1cc(-c2nc(-c3cc(Cl)cc(Cl)c3O)cs2)[nH]n1`, the MIC was > 256 µg/mL in the experiment on Enterococcus faecium [1], 128 µg/mL (≈ 358 µM) with Staphylococcus aureus [2] and 8 µg/mL (≈ 22.4 µM) in the experiment with Streptococcus pyogenes.

For the compound POLYMYXIN B, the MIC in the experiment on Klebsiella pneumoniae is 2 µg/mL; in the experiment on Acinetobacter baumannii, 2 µg/mL; in the experiment on Pseudomonas aeruginosa [9], 4 µg/mL. The outcome in the experiment with Enterococcus faecium [3], in the experiment with Pseudomonas aeruginosa [7] and with Staphylococcus aureus [8] was inactive.

For the compound `Oc1c(Cl)cc(Cl)cc1-c1csc(-c2[nH]c(Br)c(Br)c2Br)n1`, the MIC is > 256 µg/mL in the experiment on Klebsiella pneumoniae; 0.5 µg/mL (≈ 0.913 µM) in the experiment with Enterococcus faecium [1]; > 256 µg/mL in the experiment on Acinetobacter baumannii; > 256 µg/mL in the experiment with Staphylococcus aureus [2]; 0.25 µg/mL (≈ 0.456 µM) with Streptococcus pyogenes; > 256 µg/mL in the experiment on Pseudomonas aeruginosa [9].

For `Oc1c(Br)cc(C(F)(F)F)cc1-c1csc(-c2cc(C(F)(F)F)n[nH]2)n1`, the figures for the MIC with Enterococcus faecium [1], in the experiment with Staphylococcus aureus [2] and with Streptococcus pyogenes were 8 µg/mL (≈ 17.5 µM), 8 µg/mL (≈ 17.5 µM) and 16 µg/mL (≈ 34.9 µM), respectively.

As for `O=[N+]([O-])c1ccc(O)c(-c2csc(-c3cc(Cl)c(Cl)[nH]3)n2)c1`, the MIC in the experiment on Enterococcus faecium [1] was > 256 µg/mL; in the experiment with Staphylococcus aureus [2], > 256 µg/mL; with Streptococcus pyogenes, 32 µg/mL (≈ 89.8 µM).

Take `Oc1c(Cl)cc(Cl)cc1-c1csc(-c2cc(Cl)c(Cl)[nH]2)n1`: the MIC in the experiment on Enterococcus faecium [1], in the experiment on Staphylococcus aureus [2] and with Streptococcus pyogenes was > 256 µg/mL throughout.

As for `CN[C@H](CC(C)C)C(=O)N[C@H]1C(=O)N[C@@H](CC(N)=O)C(=O)N[C@H]2C(=O)N[C@H]3C(=O)N[C@H](C(=O)N[C@H](C(=O)O)c4cc(O)cc(O)c4-c4cc3ccc4O)[C@H](O)c3ccc(c(Cl)c3)Oc3cc2cc(c3O[C@@H]2O[C@H](CO)[C@@H](O)[C@H](O)[C@H]2O[C@H]2C[C@](C)(N)[C@H](O)[C@H](C)O2)Oc2ccc(cc2Cl)[C@H]1O` [VANCOMYCIN], the result in the experiment with Enterococcus faecium [3], with Pseudomonas aeruginosa [7] and with Staphylococcus aureus [8] was inactive. The MIC in the experiment with Enterococcus faecium [1] is 16 µg/mL (≈ 11 µM); in the experiment with Staphylococcus aureus [2], 8 µg/mL (≈ 5.52 µM); with Streptococcus pyogenes it was 0.25 µg/mL (≈ 0.173 µM); in the experiment with Enterococcus faecium [10], > 256 µg/mL; in the experiment with Enterococcus faecium [11], > 256 µg/mL.

With `Oc1c(Cl)cc(Cl)cc1-c1csc(-c2cc(C(F)(F)F)n[nH]2)n1`, the MIC in the experiment on Klebsiella pneumoniae was > 256 µg/mL; in the experiment with Enterococcus faecium [1] it was 4 µg/mL (≈ 10.5 µM); with Acinetobacter baumannii it was > 256 µg/mL; with Staphylococcus aureus [2], 4 µg/mL (≈ 10.5 µM); in the experiment on Streptococcus pyogenes it was 4 µg/mL (≈ 10.5 µM); in the experiment on Pseudomonas aeruginosa [9], > 256 µg/mL. Also, the Activity in the experiment with Enterococcus faecium [3], with Pseudomonas aeruginosa [7] and in the experiment on Staphylococcus aureus [8] was >60% in each case. The result in the experiment with Staphylococcus aureus [4], in the experiment with Pseudomonas aeruginosa [5] and with Enterococcus faecium [6] was Active.

The record behind these values is ChEMBL document CHEMBL5505986, “Design, synthesis and biological evaluation of thiazolyl-halogenated pyrroles or pyrazoles as novel antibacterial and antibiofilm agents” (Eur J Med Chem, 2024).
